Results reported in patent publication US20180133221A1, “ADMINISTRATION OF UBIQUITIN-ACTIVATING ENZYME INHIBITOR AND CHEMOTHERAPEUTIC AGENTS” (Millennium Pharmaceuticals, Inc., priority 2014, published 2018).

What was measured:
[1] = system: PHTX-14B breast xenograft; test: PHTX-14B xenograft model, Compound 1 and paclitaxel; assay type: in vivo, Balb/c Nude Mice; conditions: for Tumor Volume Day 28: in mm³ (unit assumed)
Experimental: Paclitaxel (Bristol-Myers Squibb Company) is formulated in 0.9% saline and administered by intravenous injection (IV) on every 4 days (Q4D) or once weekly (QW) at 10 and 20 mg/kg. […] Tumors were measured twice weekly using vernier calipers.

[2] = system: SKOV-3 ovarian cell-line derived xenograft; test: SKOV-3 xenograft model, Compound 1 and carboplatin; assay type: in vivo, nude mice; conditions: for Tumor Volume Day 14: in mm³ (unit assumed)
Experimental: SKOV-3 is an ovarian cell-line derived xenograft. Ten week old female nude mice (Taconic Farms, Inc) were inoculated subcutaneously in flank (cell suspension) with 4.0×10^6 SKOV-3 cells suspended in serum free DMEM+Matrigel. When the mean tumor volume reached approximately 200 mm^3, the animals were randomized into 12 treatment groups (n=5/group).
Carboplatin (Teva Pharmaceuticals) is formulated in 0.9% saline and administered by IP injection once weekly (QW) at 25, 50, 60, and 75 mg/kg. The once weekly schedule is also described as every 7 days (Q7D).
Compound 1 [((1R,2R,3S,4R)-2,3-dihydroxy-4-(2-(3-(trifluoromethylthio)-phenyl)pyrazolo[1,5-a]pyrimidin-7-ylamino)cyclopentyl)methyl sulfamate] is formulated in 10-20% HPbCD in sterile water and administered intravenously (IV) or subcutaneously (SC) on a BIW (twice/week schedule; Monday and Thursday or Tuesday and Friday) for either 2-4 weeks.
Tumors were measured twice weekly using vernier calipers. Tumor volumes were calculated using the standard formula V=W^2×L/2,). When mean tumor volumes reached approximately 200 mm^3 for PHTX-24C, 220 mm^3 for PHTX-Lu132, 150 mm^3 for CTG-0256, 260 mm^3 for CTG-0486, 185 mm^3 for PHTX-17C, 260 mm^3 for CTG-0165, 150 mm^3 for PHTX-14B in the study of Compound 1 and paclitaxel, 180 mm^3 for PHTX-14B in the study of Compound 1 and docetaxel, 200 mm^3 for SKOV-3, 220 mm^3 for PHTX-02B in the study of Compound 1 and docetaxel, 250 mm^3 for PHTX-02B in the study of Compound 1 and paclitaxel, 195 mm^3 for CTG-0159, 180 mm^3 for CTG-0012 or 150 mm^3 for Calu-6, mice were randomized into groups of n=5-7/arm as described in the tables below, and injected with vehicle, Compound 1 or agents (docetaxel, paclitaxel, oxaliplatin, cisplatin or carboplatin), or the combination of Compound 1 plus one of the agents, at various doses and schedules as described in tables below. Tumor size and body weight were measured approximately twice a week for the duration of the study. Mice are euthanized when their tumor volume reached 10% of their body weight, or when the average tumor volume of a treatment or control group reached approximately 2000 mm^3. Tumor growth continued to be monitored after the dosing period in some studies. Average tumor volume is reported as a function of time for selected arms of selected studies in the Figures.
Measurements from day 0 to day 14, day 19, day 21, or day 28 are analyzed as specified in Tables below. All tumor volumes have a value of 1 added to them before log10 transformation. For each animal, the log tumor volume at day 0 is subtracted from the log tumor volume on the subsequent days. This difference vs. time is used to calculate an area under the curve (AUC) for each animal using the trapezoid rule. […] The synergy score for the combination of agents A and B is defined as
100*(mean(AUCAB)−mean(AUCA)−mean(AUCB)+mean(AUCctl))/mean(AUCctl):
where AUCAB, AUCA, AUCB, and AUCctl are the AUC values for animals in the combination group, the A group, the B group, and the control group, respectively. The standard error of the synergy score is computed based on the variation in the AUC values among the animals. […] If the P-value is above 0.05, then the combination is considered to be additive. If the P-value is below 0.05, and the synergy score is less than zero, then the combination is considered to be synergistic.

Q: For `NS(=O)(=O)OC[C@H]1C[C@@H](Nc2ccnc3cc(-c4cccc(SC(F)(F)F)c4)nn23)[C@H](O)[C@@H]1O` [Compound 1, ((1R,2R,3S,4R)-2,3-dihydroxy-4-(2-(3-(trifluoromethylthio)phenyl)pyrazolo[1,5-a]pyrimidin-7-ylamino)cyclopentyl)methyl sulfamate], which “Tumor Volume Day 28” value ([1]; 10 mg/kg Compound 1 BIWx4 SC) is on record?
A: 690.0

Q: And the “Tumor Volume Day 28” value ([1]; 20 mg/kg Compound 1 BIWx4 SC)?
A: 480.6

Q: And the “Tumor Volume Day 28” value ([1]; 30 mg/kg Compound 1 BIWx4 SC)?
A: 165.1

Q: What about the anti-tumor activity ([1]; single agent Compound 1 SC at 30 mg/kg BIW for 4 weeks) of the same compound?
A: strong anti-tumor activity

Q: And the “anti-tumor activity compared to vehicle control” value ([1]; single agent Compound 1 SC at 10, and 20 mg/kg BIW for 4 weeks)?
A: modest anti-tumor activity

Q: And the “Tumor Volume Day 14” value ([2]; 5 mg/kg Compound 1 BIWx2 IV)?
A: 857.2

Q: And the “Tumor Volume Day 14” value ([2]; 10 mg/kg Compound 1 BIWx2 IV)?
A: 883

Q: What about the “Tumor Volume Day 14” value ([2]; 15 mg/kg Compound 1 BIWx2 IV) of the same compound?
A: 919.2

Q: And the “anti-tumor activity compared to vehicle control” value ([2]; single agent Compound 1 IV at 5, 10 and 15 mg/kg BIW)?
A: modest anti-tumor activity
